According to patent US9545409B2 (priority 2012, dated 2017):

What was measured:
[1] = system: ischemia-reperfusion eye model
central eye artery = experiment: blood circulation in the central eye artery under model ischemia-reperfusion; assay type: in vivo; conditions: rats, intravenous, doses of 3, 5, 10, 20 and 100 mg/kg
NMDA-receptors = experiment: blocking/unblocking of NMDA-receptors; conditions: stated property, no test described
[2] = rats, parenteral, within 96 hours of ischemia, doses of 3, 5, 10, 20 and 100 mg/kg

Structure (SMILES): OC(COCCC12CC3CC(CC(C3)C1)C2)CN1CCOCC1 (stereo not shown) [1-adamantylethyloxy-3-morpholino-2-propanol]
- disturbed indicators of acid-alkali balance, oxidative stress and energy metabolism in the retina [1, 2]: promoted the normalization
- number of apoptotic and necrotic cells in eye posterior part [1, 2]: reduces
- perivascular edema in the retina and optic nerve [1, 2]: attenuated
- retinal manifestations of endothelial dysfunction and nitrosating stress [1, 2]: promoted the reduction
- neuroprotective properties under ischemic-hypoxic injury of retina and optic nerve ([1]; summary of the studies, composition concentration range 3-100 mg/ml): expressed neuroprotective properties
- blood circulation in the central eye artery (central eye artery): stimulates
- blocking/unblocking NMDA-receptors (NMDA-receptors): fast blocking/unblocking
